Seven compounds from ChEMBL document CHEMBL1134008, “Cis- and trans-N-benzyl-octahydrobenzo[g]quinolines. Adrenergic and dopaminergic activity studies” (Bioorg Med Chem Lett, 2001) can be followed below.

Each structure is given as a SMILES string.

Holding throughout (format): cell membranes, Membrane
The target of experiment [1] is T1, D(1A) dopamine receptor (Rattus norvegicus, UniProt P18901). The experiment can be described thus: Inhibition of binding of [3H]SCH-23390 to Dopamine receptor D1 in rat striatal membranes at 5 uM concentration; NA is not active.
T1 sequence (P18901 whole entry): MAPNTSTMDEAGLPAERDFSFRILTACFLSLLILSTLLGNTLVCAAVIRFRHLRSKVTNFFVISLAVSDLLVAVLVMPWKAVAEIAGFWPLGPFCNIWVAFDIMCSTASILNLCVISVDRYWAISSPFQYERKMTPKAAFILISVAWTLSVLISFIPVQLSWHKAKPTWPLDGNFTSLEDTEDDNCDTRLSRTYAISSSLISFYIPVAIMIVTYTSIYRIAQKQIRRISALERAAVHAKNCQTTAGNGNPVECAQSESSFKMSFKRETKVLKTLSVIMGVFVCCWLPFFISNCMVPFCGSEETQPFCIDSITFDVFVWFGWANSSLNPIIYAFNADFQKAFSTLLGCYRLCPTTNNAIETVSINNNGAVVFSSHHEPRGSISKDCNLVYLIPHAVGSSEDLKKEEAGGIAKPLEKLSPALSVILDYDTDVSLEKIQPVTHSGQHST
Experiment [2] has as its target T2, Adrenergic receptor alpha-2 (Rattus norvegicus, UniProt P22086+P19328+P22909).
T2 sequence (P22086 whole entry): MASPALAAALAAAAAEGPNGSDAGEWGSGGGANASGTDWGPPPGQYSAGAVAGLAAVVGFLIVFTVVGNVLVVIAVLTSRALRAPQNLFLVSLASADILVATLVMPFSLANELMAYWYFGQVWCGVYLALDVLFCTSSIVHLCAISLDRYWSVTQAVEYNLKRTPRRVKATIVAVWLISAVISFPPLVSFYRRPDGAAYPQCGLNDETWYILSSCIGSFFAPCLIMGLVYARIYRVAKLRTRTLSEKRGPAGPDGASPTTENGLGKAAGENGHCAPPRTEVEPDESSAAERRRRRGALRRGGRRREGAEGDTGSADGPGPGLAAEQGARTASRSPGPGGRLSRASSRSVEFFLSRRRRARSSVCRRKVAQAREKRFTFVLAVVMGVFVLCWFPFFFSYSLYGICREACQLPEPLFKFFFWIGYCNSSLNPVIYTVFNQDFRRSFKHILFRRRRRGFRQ
T2 sequence (P19328 whole entry): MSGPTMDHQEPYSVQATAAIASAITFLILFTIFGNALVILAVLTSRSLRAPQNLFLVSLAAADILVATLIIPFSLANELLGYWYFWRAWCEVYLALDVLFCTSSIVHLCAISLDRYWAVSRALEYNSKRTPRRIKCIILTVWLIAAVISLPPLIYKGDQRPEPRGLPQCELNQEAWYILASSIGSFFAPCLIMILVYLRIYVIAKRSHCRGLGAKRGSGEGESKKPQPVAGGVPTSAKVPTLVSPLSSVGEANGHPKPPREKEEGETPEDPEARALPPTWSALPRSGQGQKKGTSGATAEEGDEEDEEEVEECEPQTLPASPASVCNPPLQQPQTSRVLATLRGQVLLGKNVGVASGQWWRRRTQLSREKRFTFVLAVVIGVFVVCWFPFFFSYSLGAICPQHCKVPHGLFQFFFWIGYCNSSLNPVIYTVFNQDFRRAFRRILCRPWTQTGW
T2 sequence (P22909 whole entry): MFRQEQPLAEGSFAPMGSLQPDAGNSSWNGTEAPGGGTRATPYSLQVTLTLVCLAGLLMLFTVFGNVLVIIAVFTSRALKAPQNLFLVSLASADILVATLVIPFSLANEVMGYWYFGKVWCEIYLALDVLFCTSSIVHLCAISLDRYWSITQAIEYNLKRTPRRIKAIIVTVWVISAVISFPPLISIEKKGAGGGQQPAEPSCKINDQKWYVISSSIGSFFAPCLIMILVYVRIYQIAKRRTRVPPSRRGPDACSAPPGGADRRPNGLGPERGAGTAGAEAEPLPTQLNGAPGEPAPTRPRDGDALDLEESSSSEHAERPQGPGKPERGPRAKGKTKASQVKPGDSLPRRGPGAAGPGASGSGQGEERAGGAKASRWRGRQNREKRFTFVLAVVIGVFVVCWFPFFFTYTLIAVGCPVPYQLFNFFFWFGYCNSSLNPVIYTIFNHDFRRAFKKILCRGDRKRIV
The experiment can be described thus: Inhibition of binding of [3H]rauwolscine to Alpha-2 adrenergic receptor in rat cortical membranes.

Experiment [3] deals with T3, Adrenergic receptor alpha-1 (Rattus norvegicus, UniProt P15823+P23944+P43140).
T3 sequence (P15823 whole entry): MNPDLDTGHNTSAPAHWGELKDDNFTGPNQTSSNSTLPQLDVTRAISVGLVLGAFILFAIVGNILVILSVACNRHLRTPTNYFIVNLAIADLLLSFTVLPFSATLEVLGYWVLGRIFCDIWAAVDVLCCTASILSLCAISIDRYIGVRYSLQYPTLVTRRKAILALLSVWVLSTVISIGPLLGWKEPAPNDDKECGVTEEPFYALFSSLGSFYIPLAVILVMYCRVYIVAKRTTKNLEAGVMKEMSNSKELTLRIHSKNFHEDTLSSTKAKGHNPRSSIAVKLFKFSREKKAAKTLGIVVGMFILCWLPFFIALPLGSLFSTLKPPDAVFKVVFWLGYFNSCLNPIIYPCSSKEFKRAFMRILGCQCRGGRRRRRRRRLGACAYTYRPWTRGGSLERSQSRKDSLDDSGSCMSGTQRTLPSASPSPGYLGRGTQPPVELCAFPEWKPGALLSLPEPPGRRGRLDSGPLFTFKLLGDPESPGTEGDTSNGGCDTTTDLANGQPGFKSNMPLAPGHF
T3 sequence (P23944 whole entry): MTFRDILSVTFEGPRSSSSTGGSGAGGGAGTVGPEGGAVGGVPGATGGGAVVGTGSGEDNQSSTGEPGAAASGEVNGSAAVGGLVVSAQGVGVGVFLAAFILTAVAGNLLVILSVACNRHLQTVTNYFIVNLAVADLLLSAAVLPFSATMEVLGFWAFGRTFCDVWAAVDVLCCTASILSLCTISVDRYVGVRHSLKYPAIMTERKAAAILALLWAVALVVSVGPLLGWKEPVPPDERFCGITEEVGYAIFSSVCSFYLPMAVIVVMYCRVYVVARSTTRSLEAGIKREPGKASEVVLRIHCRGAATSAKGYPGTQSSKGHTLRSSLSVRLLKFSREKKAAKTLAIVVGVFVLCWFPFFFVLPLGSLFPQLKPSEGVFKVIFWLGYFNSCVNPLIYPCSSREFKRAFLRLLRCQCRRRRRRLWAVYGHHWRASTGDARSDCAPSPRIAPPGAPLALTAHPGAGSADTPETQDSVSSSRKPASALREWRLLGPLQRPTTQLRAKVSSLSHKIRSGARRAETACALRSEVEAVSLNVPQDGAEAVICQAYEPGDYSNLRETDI
T3 sequence (P43140 whole entry): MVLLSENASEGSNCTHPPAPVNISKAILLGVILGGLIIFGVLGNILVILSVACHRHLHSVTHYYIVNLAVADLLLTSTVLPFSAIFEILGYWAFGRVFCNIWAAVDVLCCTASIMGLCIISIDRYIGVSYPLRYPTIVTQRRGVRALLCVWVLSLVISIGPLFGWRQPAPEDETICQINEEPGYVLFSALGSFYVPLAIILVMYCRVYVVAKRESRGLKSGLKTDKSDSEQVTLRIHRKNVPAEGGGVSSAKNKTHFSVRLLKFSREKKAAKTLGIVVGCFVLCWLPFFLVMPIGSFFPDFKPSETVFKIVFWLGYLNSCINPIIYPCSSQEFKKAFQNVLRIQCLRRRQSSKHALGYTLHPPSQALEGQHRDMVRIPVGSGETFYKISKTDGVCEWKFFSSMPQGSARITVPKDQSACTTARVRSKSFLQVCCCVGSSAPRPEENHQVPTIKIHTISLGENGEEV
The experiment can be described thus: Inhibition of binding of [3H]prazosin to Alpha-1 adrenergic receptor in rat cortical membranes.

Experiment [4] has as its target T1, D(1A) dopamine receptor. The experiment can be described thus: Inhibition of binding of [3H]SCH-23390 to Dopamine receptor D1 in rat striatal membranes.
The target of experiment [5] is T4, D(2) dopamine receptor (Rattus norvegicus, UniProt P61169). Briefly: Inhibition of binding of [3H]spiroperidol to Dopamine receptor D2 in rat striatal membranes at 5 uM concentration; NA is not active.
T4 sequence (P61169 whole entry): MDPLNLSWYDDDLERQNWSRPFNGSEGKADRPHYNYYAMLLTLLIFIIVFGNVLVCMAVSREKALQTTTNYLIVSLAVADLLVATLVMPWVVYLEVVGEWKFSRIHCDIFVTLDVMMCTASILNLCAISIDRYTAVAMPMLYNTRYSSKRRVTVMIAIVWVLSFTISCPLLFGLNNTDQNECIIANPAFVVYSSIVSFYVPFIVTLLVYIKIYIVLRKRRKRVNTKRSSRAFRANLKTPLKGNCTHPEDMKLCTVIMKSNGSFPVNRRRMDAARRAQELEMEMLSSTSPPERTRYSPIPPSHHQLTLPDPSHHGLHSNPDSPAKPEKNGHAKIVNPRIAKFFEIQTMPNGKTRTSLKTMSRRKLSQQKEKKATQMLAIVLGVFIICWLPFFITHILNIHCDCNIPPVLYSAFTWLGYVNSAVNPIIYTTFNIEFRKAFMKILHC
Experiment [6] deals with T4, D(2) dopamine receptor. The experiment can be described thus: Inhibition of binding of [3H]spiroperidol to Dopamine receptor D2 in rat striatal membranes.

Regarding `c1ccc(CN2CCCC3Cc4ccccc4CC32)cc1` (stereo in doubt; cis), the IC50 (in general, the concentration at which inhibition is half-maximal) was “Not Active” in experiment [1], 214 µM in experiment [2] and 739 µM in experiment [3].

Take `COc1cccc2c1CC1CCCN(Cc3ccccc3)C1C2` (stereo in doubt; trans): the half-maximal inhibitory concentration (IC50) turned out to be 0.45 µM in experiment [4], 6 µM in experiment [2] and 588 µM in experiment [3].

On to `c1ccc(CN2CCCC3Cc4ccccc4CC32)cc1` (stereo in doubt; trans), for which the 50% inhibitory concentration (IC50) in experiment [4] is 1.2 µM; in experiment [5], “Not Active”; in experiment [2], 5.9 µM; in experiment [3] it was 218 µM.

As to `COc1cccc2c1CC1CCCN(Cc3ccccc3)C1C2` (stereo in doubt; cis), the IC50 result is “Not Active” in experiment [1], “Not Active” in experiment [5], 38 µM in experiment [2] and 667 µM in experiment [3].

On to `NC1CCc2c(ccc(O)c2O)C1` (racemic), for which, in experiment [6], the 50% inhibitory concentration (IC50) is 0.7 µM. That is a sub-micromolar value.

As for `c1ccc2c(c1)CC1CCCNC1C2` (stereo unspecified), the IC50 entry in experiment [1] is “Not Active”; in experiment [5] it was “Not Active”; in experiment [2] it was 130 µM.

On to `COc1cccc2c1CC1CCCNC1C2` (trans isomer), for which the IC50 entry is “Not Active” in experiment [1], “Not Active” in experiment [5] and 67.5 µM in experiment [2].
